The record followed here is patent US11897887B2, “sGC stimulators” (Tisento Therapeutics Inc., priority 2017, dated 2024).

In one data set the target is T1, sGC enzyme (Homo sapiens, UniProt Q02153).
T1 construct: incorporated into these cells detect cGMP formed by the compounds stimulating the sGC enzyme; host or cells: HEK293 cells stably expressing the GloSensor 40F cGMP biosensor
T1 sequence (Q02153 1-619): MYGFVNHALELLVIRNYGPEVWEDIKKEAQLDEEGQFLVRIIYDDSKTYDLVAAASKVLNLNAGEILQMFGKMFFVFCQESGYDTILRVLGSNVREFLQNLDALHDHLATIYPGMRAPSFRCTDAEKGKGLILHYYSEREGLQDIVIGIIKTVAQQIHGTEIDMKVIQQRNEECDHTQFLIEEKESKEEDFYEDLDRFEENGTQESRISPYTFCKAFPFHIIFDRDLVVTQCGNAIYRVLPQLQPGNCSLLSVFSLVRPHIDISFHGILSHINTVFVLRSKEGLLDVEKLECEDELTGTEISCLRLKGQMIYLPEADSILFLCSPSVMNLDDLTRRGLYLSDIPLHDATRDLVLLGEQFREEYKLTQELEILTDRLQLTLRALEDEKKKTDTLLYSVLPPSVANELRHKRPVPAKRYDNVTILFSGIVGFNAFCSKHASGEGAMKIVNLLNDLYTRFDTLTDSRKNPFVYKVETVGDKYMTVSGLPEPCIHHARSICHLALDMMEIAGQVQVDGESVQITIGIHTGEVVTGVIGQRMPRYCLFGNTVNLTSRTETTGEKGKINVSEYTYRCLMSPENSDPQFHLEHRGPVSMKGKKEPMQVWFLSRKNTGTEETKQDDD
T1 sequence (Q02108 1-690 partner): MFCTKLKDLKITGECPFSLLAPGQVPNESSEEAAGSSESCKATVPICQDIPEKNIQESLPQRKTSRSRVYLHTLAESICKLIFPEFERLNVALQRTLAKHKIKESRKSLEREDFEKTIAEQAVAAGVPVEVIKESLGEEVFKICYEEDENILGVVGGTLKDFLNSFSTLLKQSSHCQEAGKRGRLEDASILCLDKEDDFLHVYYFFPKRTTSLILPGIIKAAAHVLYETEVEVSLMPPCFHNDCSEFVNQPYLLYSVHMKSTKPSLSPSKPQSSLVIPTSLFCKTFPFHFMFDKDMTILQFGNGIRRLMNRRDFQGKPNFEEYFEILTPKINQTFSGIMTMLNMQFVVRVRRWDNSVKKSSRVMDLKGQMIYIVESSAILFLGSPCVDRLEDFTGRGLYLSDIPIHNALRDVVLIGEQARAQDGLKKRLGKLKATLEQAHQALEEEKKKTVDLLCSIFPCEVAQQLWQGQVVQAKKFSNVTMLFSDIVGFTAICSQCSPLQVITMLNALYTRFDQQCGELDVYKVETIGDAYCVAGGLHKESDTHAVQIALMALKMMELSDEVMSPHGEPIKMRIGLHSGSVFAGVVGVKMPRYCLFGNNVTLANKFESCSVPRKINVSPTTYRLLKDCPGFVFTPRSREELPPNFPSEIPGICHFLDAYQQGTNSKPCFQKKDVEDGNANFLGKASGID
In words: cGMP GloSensor cell-based assay, 384-well format. As to conditions: HEK293 cells expressing GloSensor 40F cGMP; 10 μM DETA-NONOate; 55 min incubation; normalized to high control Compound Y (30 μM); read-out: Glo-sGC Absolute EC50. On the procedure: Human embryonic kidney cells (HEK293) cells expressing GloSensor™ 40F cGMP (Part No: CS182801, Promega) were used to evaluate the activity of test compounds. The luminescent biosensors (engineered luciferase) that were incorporated into these cells detect cGMP formed by the compounds stimulating the sGC enzyme and emit luminescence.
cGMP GoSensor cells were maintained in Dulbecco's Modification of Eagle's Medium (DMEM) supplemented with fetal bovine serum (FBS, 10% final) and hygromycine (200 ug/ml). The day before assay, cells were plated in DMEM with 10% FBS in a 50 μL volume at a density of 1.5×10^4 cells/well in a poly-D-lysine coated 384-well flat white-bottom plate (Corning Cat No 35661). Cells were incubated overnight at 37° C. in a humidified chamber with 5% CO2. The next day, medium was removed and cells were replaced with 40 ul/well of GoSensor™, 2 mM (Promega Cat No E1291). Cells were treated for 90 minutes at 25° C. to allow the substrate to equilibrate in the cells. Test compounds and Diethylenetriamine NONOate (DETA-NONOate) was diluted to 3 mM (20×) in serum-free CO2 independent medium and serially diluted at 4× dilutions to create 5× dose curve from which 10 ul was added to the wells (x μM concentration for test compound solution and 10 μM concentration for DETA-NONOate solution; wherein x is one of the following final concentrations).
For the kinetics studies, luminescence was measured right away for 0.2 sec per well with Envision (Perkin Elmer). For endpoint SAR screening, data were collected after 55 min incubation at room temperature.
Data were normalized to a high control using the following equation: 100*(Sample-Low Control)/(High Control-Low Control), where the low control is the average of sixteen DMSO (1%) control datapoints, and the high control is the average of sixteen Compound Y (30 μM) datapoints, wherein Compound Y is depicted below. Data were fit using a 4-parameter fit (log(agonist) vs. response—variable slope) using GraphPad Prism Software v.5. n=2 for all compounds. The Absolute EC50 was interpolated from the curve fit and is defined as the concentration at which a given compound elicits 50% of the high control response after data normalization as indicated above. Compounds failing to elicit a minimum response of 50% are reported as >30 μM or ND (not determined). For compounds run in duplicate or n higher than 2, the result herein given is the geometric mean of the several results obtained.
A word on the EC50: it is the concentration giving half of the maximal effect. With `OC(CNc1nc(-c2cn3ccnc3c(Cc3ccccc3F)n2)ncc1Cl)C(F)(F)F` (racemic) [Compound I-8], the EC50 lay in the range of 100 to 1000 nM.
The same measure, in the same setting: next, `COc1cnc(-c2cn3ncnc3c(Cc3ccccc3F)n2)nc1NCC(O)C(F)(F)F` (racemic) [Compound I-11]: 1000 to 30000 nM; `OC(CNc1nc(-c2cn3ccnc3c(Cc3ccccc3F)n2)ncc1F)(C(F)(F)F)C(F)(F)F` [Compound I-2, 1,1,1,3,3,3-hexafluoro-2-(((5-fluoro-2-(8-(2-fluorobenzyl)imidazo[1,2-a]pyrazin-6-yl)pyrimidin-4-yl)amino)methyl)propan-2-ol]: no more than 100 nM.
Still for that read-out and setting: under `NC(=O)[C@](O)(CNc1nc(-c2cn3ccnc3c(Cc3ccccc3F)n2)ncc1F)C(F)(F)F` [Compound I-3] stands no more than 100 nM; under `NC(=O)[C@](O)(CNc1nc(-c2cn3ccnc3c(Cc3cc(F)ccc3F)n2)ncc1F)C(F)(F)F` [Compound I-5], no more than 100 nM.
Regarding `OC(CNc1nc(-c2cn3ncnc3c(Cc3ccccc3F)n2)ncc1F)(C(F)(F)F)C(F)(F)F` [Compound I-6], the EC50 was 100 to 1000 nM.
On the same count and under the same terms, next, `CC(C)(O)CNc1nc(-c2cn3c(Cl)cnc3c(Cc3ccccc3F)n2)ncc1F` [Compound I-7]: 100 to 1000 nM; `OCCNc1ccnc(-c2cn3ccnc3c(Cc3ccccc3F)n2)n1` [Compound I-9]: 100 to 1000 nM.
Still for that read-out and setting: under `Cc1c(F)cc(Cc2nc(-c3ncc(Cl)c(NCC(O)(C(F)(F)F)C(F)(F)F)n3)cn3ccnc23)cc1F` [Compound I-10] stands 1000 to 30000 nM; under `N#Cc1cnc(-c2cn3ncnc3c(Cc3ccccc3F)n2)nc1NCC(O)(C(F)(F)F)C(F)(F)F` [Compound I-12], 100 to 1000 nM; under `O=P([O-])([O-])OC(CNc1nc(-c2cn3ccnc3c(Cc3ccccc3F)n2)ncc1F)(C(F)(F)F)C(F)(F)F.[Na+].[Na+]` [Compound I-15], 1000 to 30000 nM.
Turning to `NC(=O)[C@](O)(CNc1nc(-c2cn3ncnc3c(Cc3ccccc3F)n2)ncc1F)C(F)(F)F` [Compound I-16], the EC50 fell in the range of 100 to 1000 nM.

In the next data set the test system is Sprague-Dawley Rats. Description: Blood pressure change in Sprague-Dawley rats. As to conditions: conscious rat, Compound I-15 (prodrug salt of I-2) dosed orally in water at 10 mg/kg, 160 minutes post-dose.
Procedure: Male rats (250-350 g body weight, supplied by Harlan Laboratories) were anesthetized with ketamine/xylazine and a heparinized saline fluid filled catheter implanted into the right femoral artery. The catheter was exteriorized between the scapula, capped, and the animal allowed to recover for at least 7 days post surgery prior to any compound testing. Prior to testing animals were maintained on normal diet, with free access to drinking water, under a 12 hour light-dark cycle.
On the day of experimentation, under inhaled isoflurane anesthesia, the catheter was uncapped and connected to a tether (Instech Labs) and pressure transducer (Harvard Apparatus). Blood pressure and heart rate were subsequently captured and analyzed with a dedicated data capture system (PowerLab, ADInstruments). Data sampling rates were set at 1 cycle per second. Once connected, each rat was allowed to recover from anesthesia and baseline blood pressure and heart rate levels were established in these conscious, freely-moving animals. Once baseline was established either vehicle (0.5% methylcellulose or 100% PEG400) or test article was administered orally (PO, 10 mg/kg) and the effects on blood pressure and heart rate monitored for up to 24 hours.
For the compound `OC(CNc1nc(-c2cn3ccnc3c(Cc3ccccc3F)n2)ncc1F)(C(F)(F)F)C(F)(F)F` [Compound I-2, 1,1,1,3,3,3-hexafluoro-2-(((5-fluoro-2-(8-(2-fluorobenzyl)imidazo[1,2-a]pyrazin-6-yl)pyrimidin-4-yl)amino)methyl)propan-2-ol], the “decrease of MAP (mean arterial pressure) below baseline” value is recorded as “about 10 mmHg”.

Still in this data set, the particulars now being: rat, dosed orally in water at 10 mg/kg, one hour post-dose.
On to `O=P([O-])([O-])OC(CNc1nc(-c2cn3ccnc3c(Cc3ccccc3F)n2)ncc1F)(C(F)(F)F)C(F)(F)F.[Na+].[Na+]` [Compound I-15], for which the “dosed Compound I-15 converted to Compound I-2” value was found to be 97.5%.
